{
  "source": "patent US20220218710A1",
  "about": "“Inhibition of Neddylation for Treatment of MS” (The Regents of the University of California, priority 2019, published 2022)",
  "system": "experimental autoimmune encephalomyelitis (EAE)",
  "assay_type": "in vivo, C57BL/6 mice",
  "experimental": "FIGS. 3A, 3B, and 3C. FIGS. 3A, 3B, and 3C depicts pevonedistat treatment effects in an MS animal model. FIG. 3A depicts the trial design: C57BL/6 mice were treated daily starting on Day−1 with either Pevonedistat (20 mg/kg) or placebo (n=10/group). The result shown here is one representative of two independent experiments. EAE was induced through active immunization with myelin oligodendrocyte (MOG) peptide 35-55 following standard protocols (triangles). Weights were taken on D−1, D7, and D14 (dots). Animals were scored daily. Mice were sacrificed and brain and spinal cords of were harbored on Day 16 at peak disease (n=4/group) (triangle). FIG. 3B depicts EAE severity: Diseases was assessed blinded using a […] scale from 0 to 5 (0=no symptoms, 5=death). Data shown here are from one representative of two experiments. FIG. 3C depicts mice weights over the course of the experiment. ****p-value<0.001, 2-way ANOVA test.\nEAE induction and neddylation inhibition in mice. Four weeks old female C57BL/6 mice were used. All mice were housed in closed caging systems and provided with standard irradiated chow diet, acidified water ad libitum and housed under a 12-hour light cycle. Pevonedistat (MLN4924) (Chemietek Inc., Indianapolis, Ind.) was dissolved in DMSO and further diluted in 30% of PEG300 and 5% of TWEEN in ddH2O at a concentration of 40 mg/mL and stored at −20° C. 7-8 week old mice were treated daily with 20 mg/kg Pevonedistat or vehicle (same concentration of buffer without Pevonedistat) starting at day −1. Mice were immunized subcutaneously on day 0 with 100 μg MOG35-55 emulsified in incomplete Freund's adjuvant supplemented with Mycobacterium tuberculosis followed by two intraperitoneal injections on Day 0 and Day 2 with 300 ng pertussis each. […] Mice were scored daily on a […] scale in a blinded fashion as follows: 0, no deficit; 1, limp tail only; 2, limp tail and hind limb weakness; 3, complete hind limb paralysis; 4, complete hind limb paralysis and partial/complete forelimb paralysis; 5, death.\nInhibition of neddylation reduces EAE. […] Pevonedistat (MLN4924), which is a small molecule and first-in-class inhibitor of NAE was next used in experimental autoimmune encephalomyelitis (EAE), an established MS mouse model driven by a strong CD4+ T cell response (FIG. 3A). Although Pevonedistat was originally tested as a cancer therapy, recent studies proposed this agent as a potential therapeutic target for immune-related diseases due to the important role of neddylation in immune cell functions.",
  "key": {"[1]": {"settings": "20 mg/kg daily, EAE mice at peak disease"}},
  "data": [
    {"smiles": "NS(=O)(=O)OC[C@@H]1C[C@@H](n2ccc3c(N[C@H]4CCc5ccccc54)ncnc32)C[C@@H]1O", "note": "[Pevonedistat, pevonedistat]", "values": [
      {"measurement": "EAE severity (10-point scale from 0 to 5, scored daily, blinded)", "setting": "20 mg/kg daily from day -1, compared to placebo-treated group, FIG. 3B", "result": "significantly reduced EAE severity"},
      {"measurement": "density of CD3+ T cells in spinal cord", "setting": "[1]", "result": "decreased densities"},
      {"measurement": "density of Iba1+ myeloid cells in spinal cord", "setting": "[1]", "result": "decreased densities"},
      {"measurement": "spinal cord inflammation (inflammatory infiltrates)", "setting": "20 mg/kg daily, EAE spinal cords at peak disease, vs placebo", "result": "dramatic reduction in spinal cord inflammation"},
      {"measurement": "demyelination, histological assessment of CNS tissue", "setting": "20 mg/kg daily, at peak disease (Day 16)", "result": "significant reduction of demyelination"},
      {"measurement": "mice weights during the disease course", "setting": "20 mg/kg daily, placebo group had significant weight loss at peak of disease, FIG. 3C", "result": "steady weight"}
    ]}
  ]
}
